Counter-ions that a name gives are not always drawn. Where only a bound is given, the exact number is not on record here.

The subject of one test is human primary T-cells, IL-2 stimulated proliferation (JAK-1 and JAK-3 dependent; reported as JAK3 activity). Kind of test: Human primary T-cell proliferation stimulated by IL-2 (Example 3). It is filed as cell-based. The following applies: Homo sapiens, T-cell, tested under conditions described in Example 3 (IL-2 stimulated human primary T-cell proliferation); read-out: ability to inhibit JAK3 activity, IC50 range (Table V). A digest of the protocol: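 Peripheral-blood human T-cells pre-activated via TCR/CD28, IL-2-starved overnight, then cultured 72 h at 37 °C with compound in Yssel's medium containing IL-2 (80 U/mL in cell suspension). Proliferation read as viable-cell ATP by CellTiter-Glo luminescence; reduction versus control taken as JAK pathway inhibition.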
Turning to `N#Cc1ccc(Nc2ncc(F)c(Nc3ccc4oc(=O)[nH]c4c3)n2)cc1` [Compound I-45, N4-(benzo[d]oxazol-2(3H)-on-5-yl)-N2-(4-cyanophenyl)-5-fluoropyrimidine-2,4-diamine], the concentration for half-maximal inhibition (IC50) was less than 500 nM.

On to `Cc1cnc(Nc2ccc(N3C[C@@H](C)N(C)C[C@@H]3C)nc2)nc1Nc1ccc2oc(=O)[nH]c2c1` (relative stereo) [II-129, 5-methyl-N4-(2-oxo-2,3-dihydro-1,3-benzoxazol-5-yl)-N2-[2-(trans-2,4,5-trimethylpiperazino)pyridin-5-yl]-2,4-pyrimidinediamine], for which the half-maximal inhibitory concentration (IC50) was less than 500 nM.

For the compound `COc1cc(Nc2ncc(C)c(Nc3ccc4oc(=O)[nH]c4c3)n2)ccc1C(=O)N1CCOCC1` [Compound I-269, 5-(2-(3-methoxy-4-(morpholine-4-carbonyl)phenylamino)-5-methylpyrimidin-4-ylamino)benzo[d]oxazol-2(3H)-one], the IC50 is less than 500 nM.

As to `CCN1CCN(c2ccc(Nc3ncc(C)c(Nc4ccc5oc(=O)[nH]c5c4)n3)cc2C(F)(F)F)CC1` [Compound I-110, N4-(benzoxazolin-2-on-5-yl)-N2-[3-trifluoromethyl-4-(4-ethylpiperazin-1-yl)phenyl]-5-methylpyrimidine-2,4-diamine], the IC50 was less than 500 nM.

As for `COc1ccc(Nc2ncc(C)c(Nc3ccc4oc(=O)[nH]c4c3)n2)cc1-c1ccncc1` [Compound I-486, 5-(2-(4-methoxy-3-(pyridin-4-yl)phenylamino)-5-methylpyrimidin-4-ylamino)benzo[d]oxazol-2(3H)-one formate salt], the IC50 was less than 500 nM.

Regarding `Cc1cnc(Nc2ccc(NCC3CC3)nc2)nc1Nc1ccc2oc(=O)[nH]c2c1` [II-74, 5-(2-(6-(cyclopropylmethylamino)pyridin-3-ylamino)-5-methylpyrimidin-4-ylamino)benzo[d]oxazol-2(3H)-one], the IC50 is less than 500 nM.

With `CN1CCN(c2ccc(Nc3ncc(C(F)(F)F)c(Nc4ccc5oc(=O)[nH]c5c4)n3)cn2)CC1` [II-85, 5-(2-(6-(4-methylpiperazin-1-yl)pyridin-3-ylamino)-5-(trifluoromethyl)pyrimidin-4-ylamino)benzo[d]oxazol-2(3H)-one], the IC50 is less than 500 nM.

On to `Cc1cnc(Nc2ccc3c(c2)NC(=O)CC3)nc1Nc1ccc2oc(=O)[nH]c2c1` [IV-24, 5-(5-methyl-2-(2-oxo-1,2,3,4-tetrahydroquinolin-7-ylamino)pyrimidin-4-ylamino)benzo[d]oxazol-2(3H)-one], for which the IC50 was less than 500 nM.

Turning to `Cc1cc(F)c(Nc2ncc(C)c(Nc3ccc4oc(=O)[nH]c4c3)n2)cc1C` [Compound I-530, 5-(2-(2-fluoro-4,5-dimethylphenylamino)-5-methylpyrimidin-4-ylamino)benzo[d]oxazol-2(3H)-one], the half-inhibitory concentration (IC50) is less than 500 nM.

As for `Cc1cnc(Nc2cnc(N3CCN4CCC3CC4)c(Cl)c2)nc1Nc1ccc2oc(=O)[nH]c2c1` [II-150, 5-(2-(6-(1,4-diazabicyclo[3.2.2]nonan-4-yl)-5-chloropyridin-3-ylamino)-5-methylpyrimidin-4-ylamino)benzo[d]oxazol-2(3H)-one], the IC50 was less than 500 nM.

Consider `Cc1cnc(Nc2cc(F)cc(F)c2F)nc1Nc1ccc2oc(=O)[nH]c2c1` [Compound I-480, 5-[5-Methyl-2-(2,3,5-trifluoro-phenylamino)-pyrimidin-4-ylamino]-3H-benzooxazol-2-one], for which the IC50 is more than 10000 nM.

Consider `COCCN1C(=O)C(C)(C)Oc2cc(Nc3ncc(C)c(Nc4ccc5oc(=O)[nH]c5c4)n3)cnc21` [IV-45, N2-[2,2-dimethyl-4-(2-methoxyethyl)-2H-pyrido[3,2-b][1,4]oxazin-3(4H)-one-7-yl]-5-methyl-N4-(2-oxo-2,3-dihydro-1,3-benzoxazol-5-yl)-2,4-pyrimidinediamine], for which the IC50 is less than 500 nM.

On to `Cc1cnc(Nc2ccc(N3CCC(NS(C)(=O)=O)C3)nc2)nc1Nc1ccc2oc(=O)[nH]c2c1` (stereo not shown) [II-93, N-(1-(5-(5-methyl-4-(2-oxo-2,3-dihydrobenzo[d]oxazol-5-ylamino)pyrimidin-2-ylamino)pyridin-2-yl)pyrrolidin-3-yl)methanesulfonamide], for which the IC50 was less than 500 nM.

As for `Cc1cnc(Nc2cc(C(C)NC3CCC3)cc(C(F)(F)F)c2)nc1Nc1ccc2oc(=O)[nH]c2c1` (stereo not shown) [Compound I-465, 5-(2-(3-(1-(cyclobutylamino)ethyl)-5-(trifluoromethyl)phenylamino)-5-methylpyrimidin-4-ylamino)benzo[d]oxazol-2(3H)-one], the IC50 was less than 500 nM.

With `Cc1cnc(Nc2ccc(N3CCO[C@H](C)C3)nc2)nc1Nc1ccc2oc(=O)[nH]c2c1` [II-135, 5-methyl-N2-[2-(2R-methylmorpholino)pyridin-5-yl]-N4-(2-oxo-2,3-dihydro-1,3-benzoxazol-5-yl)-2,4-pyrimidinediamine], the concentration for half-maximal inhibition (IC50) was less than 500 nM.

For the compound `Cc1cnc(Nc2cc(Br)cc(C(F)(F)F)c2)nc1Nc1ccc2oc(=O)[nH]c2c1` [Compound I-189, 5-[2-(3-Bromo-5-trifluoromethyl-phenylamino)-5-methyl-pyrimidin-4-ylamino]-3H-benzooxazol-2-one], the half-maximal inhibitory concentration (IC50) is less than 500 nM.

Regarding `Cc1cnc(Nc2ccc(N3C[C@@H](C)N[C@@H](C)C3)nc2)nc1Nc1ccc2oc(=O)[nH]c2c1` [II-131, N2-[2-(cis-3,5-dimethylpiperazino)pyridin-5-yl]-5-methyl-N4-(2-oxo-2,3-dihydro-1,3-benzoxazol-5-yl)-2,4-pyrimidinediamine], the IC50 is less than 500 nM.

Turning to `Cc1cnc(Nc2ccc(N3CCC[C@H](N(C)C(=O)OC(C)(C)C)C3)nc2)nc1Nc1ccc2oc(=O)[nH]c2c1` [II-87, (S)-tert-butyl methyl(1-(5-(5-methyl-4-(2-oxo-2,3-dihydrobenzo[d]oxazol-5-ylamino)pyrimidin-2-ylamino)pyridin-2-yl)piperidin-3-yl)carbamate], the IC50 is less than 500 nM.

On to `Cc1cnc(Nc2ccc(N3CCN(C)CC3)nc2)nc1Nc1ccc2oc(=O)[nH]c2c1` [II-13, N4-(benzoxazolin-2-on-5-yl)-N2-[2-(4-methylpiperazin-1-yl)pyridin-5-yl]-5-methylpyrimidine-2,4-diamine], for which the IC50 was less than 500 nM.

For `COC(=O)c1ccc(Nc2ncc(C)c(Nc3ccc4oc(=O)[nH]c4c3)n2)cc1C` [Compound I-159, 2-Methyl-4-[5-methyl-4-(2-oxo-2,3-dihydro-benzooxazol-5-ylamino)-pyrimidin-2-ylamino]-benzoic acid methyl ester], the IC50 was less than 500 nM.

Still in this test, the particulars now being: tested under conditions described in Example 3 (IL-2 stimulated human primary T-cell proliferation); read-out: ability to inhibit JAK3 activity, IC50 range (Table V).
Regarding `Cc1cnc(Nc2ccc(SC(F)(F)F)cc2)nc1Nc1ccc2oc(=O)[nH]c2c1` [Compound I-367, N2-(4-trifluoromethylthio)phenyl-5-methyl-N4-(2-oxo-2,3-dihydro-1,3-benzoxazol-5-yl)-2,4-pyrimidinediamine], the IC50 was less than 500 nM.

For `CNC(=O)COc1cccc(Nc2ncc(C)c(Nc3ccc4oc(=O)[nH]c4c3)n2)c1` [Compound I-306, 5-methyl-N2-(3-methylaminocarbonylmethoxy)phenyl-N4-(2-oxo-2,3-dihydro-1,3-benzoxazol-5-yl)-2,4-pyrimidinediamine], the IC50 is less than 500 nM.

Consider `Cn1c(=O)n(C)c2cc(Nc3nc(Nc4cccc(S(C)(=O)=O)c4)ncc3F)ccc21` [Compound I-41, N4-(1,3-dimethylbenzimidazolin-2-on-5-yl)-N2-((3-methylsulfonyl)phenyl)-5-fluoropyrimidine-2,4-diamine], for which the IC50 lay within 500 to 5000 nM.

With `Cc1cnc(Nc2cccc(OCC(N)=O)c2)nc1Nc1ccc2oc(=O)[nH]c2c1` [Compound I-319, N2-[3-(aminocarbonylmethoxy)]phenyl-5-methyl-N4-(2-oxo-2,3-dihydro-1,3-benzoxazol-5-yl)-2,4-pyrimidinediamine], the IC50 is less than 500 nM.

Regarding `Cc1cnc(Nc2ccc(Cl)c(OC(F)F)c2)nc1Nc1ccc2oc(=O)[nH]c2c1` [Compound I-418, N2-(4-chloro-3-difluoromethoxy)phenyl-5-methyl-N4-(2-oxo-2,3-dihydro-1,3-benzoxazol-5-yl)-2,4-pyrimidinediamine], the IC50 is less than 500 nM.

Regarding `COc1c(F)cc(Nc2ncc(C)c(Nc3ccc4oc(=O)[nH]c4c3)n2)cc1F` [Compound I-381, N2-(3,5-difluoro-4-methoxy)phenyl-5-methyl-N4-(2-oxo-2,3-dihydro-1,3-benzoxazol-5-yl)-2,4-pyrimidinediamine], the IC50 was less than 500 nM.

Regarding `Cc1cnc(Nc2cccc(S(C)(=O)=O)c2)nc1Nc1ccc2oc(=O)[nH]c2c1` [Compound I-16], the concentration for half-maximal inhibition (IC50) was less than 500 nM.

Take `Cc1cnc(Nc2ccc(N(C)S(C)(=O)=O)cc2)nc1Nc1ccc2oc(=O)[nH]c2c1` [Compound I-93, N2-((4-methylsulfonyl-N-methylamino)phenyl)-N4-(2-oxo-2,3-dihydrobenzo[d]oxazol-5-yl)-5-methylpyrimidine-2,4-diamine]: the IC50 is less than 500 nM.

On to `Cc1cnc(Nc2ccc(S(N)(=O)=O)cc2)nc1Nc1ccc2oc(=O)n(C)c2c1` [Compound I-68, N2-((4-aminosulfonyl)phenyl)-N4-(3-methyl-2-oxo-2,3-dihydrobenzo[d]oxazol-5-yl)-5-methylpyrimidine-2,4-diamine], for which the 50% inhibitory concentration (IC50) was less than 500 nM.

With `Cc1cnc(Nc2ccc(N(C)[C@H]3CCCN(Cc4ccccc4)C3)nc2)nc1Nc1ccc2oc(=O)[nH]c2c1` [II-100, (S)-5-(2-(6-((1-benzylpiperidin-3-yl)(methyl)amino)pyridin-3-ylamino)-5-methylpyrimidin-4-ylamino)benzo[d]oxazol-2(3H)-one], the IC50 is less than 500 nM.

On to `COc1ccc(Nc2ncc(C)c(Nc3ccc4oc(=O)[nH]c4c3)n2)cc1F` [Compound I-350, N2-(3-fluoro-4-methoxy)phenyl-5-methyl-N4-(2-oxo-2,3-dihydro-1,3-benzoxazol-5-yl)-2,4-pyrimidinediamine], for which the IC50 was less than 500 nM.

Source of the values: patent US10005767B2, “Compositions and methods for inhibition of the JAK pathway” (Rigel Pharmaceuticals, Inc., priority 2009, dated 2018).
